Source: PubChem BioAssay (NCI)
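GI50 is the concentration that inhibits growth by half. TGI: total growth inhibition.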

Legend:
Assay in all cases: growth of human tumour cells (NCI), 384-well format
786-0 renal = system: 786-0 renal
A498 renal = system: A498 renal
A549 NSCLC = system: A549 NSCLC
ACHN renal = system: ACHN renal
BT-549 breast = system: BT-549 breast
CAKI-1 renal = system: CAKI-1 renal
CCRF-CEM leukemia = system: CCRF-CEM leukemia
COLO 205 colon = system: COLO 205 colon
DU-145 prostate = system: DU-145 prostate
EKVX NSCLC = system: EKVX NSCLC
HCC-2998 colon = system: HCC-2998 colon
HCT-116 colon = system: HCT-116 colon
HCT-15 colon = system: HCT-15 colon
HL-60(TB) leukemia = system: HL-60(TB) leukemia
HOP-62 NSCLC = system: HOP-62 NSCLC
HOP-92 NSCLC = system: HOP-92 NSCLC
HS 578T breast = system: HS 578T breast
HT29 colon = system: HT29 colon
IGROV1 ovarian = system: IGROV1 ovarian
KM12 colon = system: KM12 colon
LOX IMVI melanoma = system: LOX IMVI melanoma
M14 melanoma = system: M14 melanoma
MALME-3M melanoma = system: MALME-3M melanoma
MCF7 breast = system: MCF7 breast
MDA-MB-231 breast = system: MDA-MB-231 breast
MDA-MB-435 melanoma = system: MDA-MB-435 melanoma
MDA-MB-468 breast = system: MDA-MB-468 breast
MOLT-4 leukemia = system: MOLT-4 leukemia
NCI-H226 lung = system: NCI-H226 lung
NCI-H23 lung = system: NCI-H23 lung
NCI-H322M lung = system: NCI-H322M lung
NCI-H460 NSCLC = system: NCI-H460 NSCLC
NCI-H522 lung = system: NCI-H522 lung
NCI/ADR-RES ovarian = system: NCI/ADR-RES ovarian
OVCAR-3 ovarian = system: OVCAR-3 ovarian
OVCAR-4 ovarian = system: OVCAR-4 ovarian
OVCAR-5 ovarian = system: OVCAR-5 ovarian
OVCAR-8 ovarian = system: OVCAR-8 ovarian
PC-3 prostate = system: PC-3 prostate
RPMI-8226 leukemia = system: RPMI-8226 leukemia
RXF 393 renal = system: RXF 393 renal
SF-268 CNS = system: SF-268 CNS
SF-295 CNS = system: SF-295 CNS
SF-539 CNS = system: SF-539 CNS
SK-MEL-28 melanoma = system: SK-MEL-28 melanoma
SK-MEL-5 melanoma = system: SK-MEL-5 melanoma
SK-OV-3 ovarian = system: SK-OV-3 ovarian
SN12C renal = system: SN12C renal
SNB-19 CNS = system: SNB-19 CNS
SNB-75 CNS = system: SNB-75 CNS
SR leukemia = system: SR leukemia
SW-620 colon = system: SW-620 colon
T-47D breast = system: T-47D breast
TK-10 renal = system: TK-10 renal
U251 glioblastoma = system: U251 glioblastoma
UACC-257 melanoma = system: UACC-257 melanoma
UACC-62 melanoma = system: UACC-62 melanoma
UO-31 renal = system: UO-31 renal

Cc1cc(Nc2ncnc3ccc(NC4=NC(C)(C)CO4)cc23)ccc1Oc1ccn2ncnc2c1
GI50 (786-0 renal): 4.25 µM | TGI (786-0 renal): 8.71 µM | GI50 (A498 renal): 4.69 µM | TGI (A498 renal): 9.11 µM | GI50 (A549 NSCLC): 14.6 µM | TGI (A549 NSCLC): > 47.3 µM | GI50 (ACHN renal): 12.6 µM | TGI (ACHN renal): > 46.9 µM | GI50 (BT-549 breast): 5.36 µM | TGI (BT-549 breast): 10.7 µM | GI50 (CAKI-1 renal): 4.23 µM | TGI (CAKI-1 renal): 12.6 µM | GI50 (CCRF-CEM leukemia): 22.9 µM | TGI (CCRF-CEM leukemia): > 100 µM | GI50 (COLO 205 colon): > 40.9 µM | TGI (COLO 205 colon): > 55.1 µM | GI50 (DU-145 prostate): 13.6 µM | TGI (DU-145 prostate): 27.8 µM | GI50 (EKVX NSCLC): 23 µM | TGI (EKVX NSCLC): > 46 µM | GI50 (HCC-2998 colon): 24.3 µM | TGI (HCC-2998 colon): 98.8 µM | GI50 (HCT-116 colon): 6.82 µM | TGI (HCT-116 colon): 20.3 µM | GI50 (HCT-15 colon): 9.08 µM | TGI (HCT-15 colon): 25.4 µM | GI50 (HL-60(TB) leukemia): 5.59 µM | TGI (HL-60(TB) leukemia): 10.3 µM | GI50 (HOP-62 NSCLC): 13.5 µM | TGI (HOP-62 NSCLC): 28.7 µM | GI50 (HOP-92 NSCLC): 4.48 µM | TGI (HOP-92 NSCLC): 10.3 µM | GI50 (HS 578T breast): 3.74 µM | TGI (HS 578T breast): 8.79 µM | GI50 (HT29 colon): 29.9 µM | TGI (HT29 colon): > 100 µM | GI50 (IGROV1 ovarian): 5 µM | TGI (IGROV1 ovarian): > 40.4 µM | GI50 (KM12 colon): 2.64 µM | TGI (KM12 colon): > 55 µM | GI50 (LOX IMVI melanoma): 14.6 µM | TGI (LOX IMVI melanoma): 28.7 µM | GI50 (M14 melanoma): 11.4 µM | TGI (M14 melanoma): > 57.2 µM | GI50 (MALME-3M melanoma): 2.29 µM | TGI (MALME-3M melanoma): 7.05 µM | GI50 (MCF7 breast): 18.3 µM | TGI (MCF7 breast): > 48.2 µM | GI50 (MDA-MB-231 breast): 13.6 µM | TGI (MDA-MB-231 breast): 27.7 µM | GI50 (MDA-MB-435 melanoma): 18.6 µM | TGI (MDA-MB-435 melanoma): > 59.6 µM | GI50 (MDA-MB-468 breast): 6.86 µM | TGI (MDA-MB-468 breast): 19.1 µM | GI50 (MOLT-4 leukemia): 1.93 µM | TGI (MOLT-4 leukemia): 7.7 µM | GI50 (NCI-H226 lung): 12.5 µM | TGI (NCI-H226 lung): > 43 µM | GI50 (NCI-H23 lung): 25.1 µM | TGI (NCI-H23 lung): > 53.1 µM | GI50 (NCI-H322M lung): 5.09 µM | TGI (NCI-H322M lung): > 43.6 µM | GI50 (NCI-H460 NSCLC): 4.32 µM | TGI (NCI-H460 NSCLC): 9.09 µM | GI50 (NCI-H522 lung): 1.29 µM | TGI (NCI-H522 lung): 23.7 µM | GI50 (NCI/ADR-RES ovarian): 14.3 µM | TGI (NCI/ADR-RES ovarian): 27.5 µM | GI50 (OVCAR-3 ovarian): 4.71 µM | TGI (OVCAR-3 ovarian): 10 µM | GI50 (OVCAR-4 ovarian): 10.3 µM | TGI (OVCAR-4 ovarian): 22.6 µM | GI50 (OVCAR-5 ovarian): > 38.8 µM | TGI (OVCAR-5 ovarian): > 58.1 µM | GI50 (OVCAR-8 ovarian): 14.3 µM | TGI (OVCAR-8 ovarian): > 44.3 µM | GI50 (PC-3 prostate): 8.56 µM | TGI (PC-3 prostate): > 53.8 µM | GI50 (RPMI-8226 leukemia): 2.54 µM | TGI (RPMI-8226 leukemia): 14.9 µM | GI50 (RXF 393 renal): 7.33 µM | TGI (RXF 393 renal): > 27.7 µM | GI50 (SF-268 CNS): 6.32 µM | TGI (SF-268 CNS): > 50.2 µM | GI50 (SF-295 CNS): 16.3 µM | TGI (SF-295 CNS): 32.9 µM | GI50 (SF-539 CNS): 5.18 µM | TGI (SF-539 CNS): 9.56 µM | GI50 (SK-MEL-28 melanoma): 8.21 µM | TGI (SK-MEL-28 melanoma): 49.7 µM | GI50 (SK-MEL-5 melanoma): 12.3 µM | TGI (SK-MEL-5 melanoma): 26.6 µM | GI50 (SK-OV-3 ovarian): 13 µM | TGI (SK-OV-3 ovarian): > 46 µM | GI50 (SN12C renal): 5.84 µM | TGI (SN12C renal): 20 µM | GI50 (SNB-19 CNS): 9.26 µM | TGI (SNB-19 CNS): > 61.7 µM | GI50 (SNB-75 CNS): 6.7 µM | TGI (SNB-75 CNS): 13.8 µM | GI50 (SR leukemia): 0.407 µM | TGI (SR leukemia): 0.814 µM | GI50 (SW-620 colon): 6.12 µM | TGI (SW-620 colon): > 57.8 µM | GI50 (T-47D breast): 2.9 µM | TGI (T-47D breast): 21.3 µM | GI50 (TK-10 renal): 15.2 µM | TGI (TK-10 renal): 36 µM | GI50 (U251 glioblastoma): 15.9 µM | TGI (U251 glioblastoma): 36.1 µM | GI50 (UACC-257 melanoma): 20.2 µM | TGI (UACC-257 melanoma): 44.6 µM | GI50 (UACC-62 melanoma): 5.05 µM | TGI (UACC-62 melanoma): 10.3 µM | GI50 (UO-31 renal): 3.27 µM | TGI (UO-31 renal): 8.28 µM
